Assay results reported in the kinase profiling compilation of Christmann-Franck et al. (2016).

Key:
Assay in all cases: KINOMEscan competition binding
Conditions in all cases: compound 10.0 µM
BRAF (human) = BRAF (human) (UniProt P15056)
[1] = system: BRAF (human), P15056 [V600E]
[2] = system: ABL1 (human), P00519 [Q252H]
[3] = system: ABL1 (human), P00519 [H396P]
MATK (human) = MATK (human) (UniProt P42679)
SNRK (human) = SNRK (human) (UniProt Q9NRH2)
YSK4 (human) = YSK4 (human) (UniProt Q56UN5)
MAP2K7 (human) = MAP2K7 (human) (UniProt O14733)
MAP2K7 (human), sequence (O14733 whole entry, looked up): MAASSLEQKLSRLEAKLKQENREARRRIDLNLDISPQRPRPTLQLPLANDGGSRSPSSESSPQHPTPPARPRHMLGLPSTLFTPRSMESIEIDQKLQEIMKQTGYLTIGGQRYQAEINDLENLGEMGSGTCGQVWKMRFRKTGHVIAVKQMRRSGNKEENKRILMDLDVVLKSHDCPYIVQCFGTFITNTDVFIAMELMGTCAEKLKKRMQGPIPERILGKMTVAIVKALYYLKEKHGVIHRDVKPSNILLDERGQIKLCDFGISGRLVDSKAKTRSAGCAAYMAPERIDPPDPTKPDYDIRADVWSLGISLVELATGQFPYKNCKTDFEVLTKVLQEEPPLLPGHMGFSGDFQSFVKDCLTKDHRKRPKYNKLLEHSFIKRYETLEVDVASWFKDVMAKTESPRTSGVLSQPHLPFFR

SIK3 (human) = SIK3 (human) (UniProt Q9Y2K2)
EPHB6 (human) = EPHB6 (human) (UniProt O15197)
RPS6KB1 (human) = RPS6KB1 (human) (UniProt P23443)
RPS6KB1 (human), sequence (P23443 whole entry, looked up): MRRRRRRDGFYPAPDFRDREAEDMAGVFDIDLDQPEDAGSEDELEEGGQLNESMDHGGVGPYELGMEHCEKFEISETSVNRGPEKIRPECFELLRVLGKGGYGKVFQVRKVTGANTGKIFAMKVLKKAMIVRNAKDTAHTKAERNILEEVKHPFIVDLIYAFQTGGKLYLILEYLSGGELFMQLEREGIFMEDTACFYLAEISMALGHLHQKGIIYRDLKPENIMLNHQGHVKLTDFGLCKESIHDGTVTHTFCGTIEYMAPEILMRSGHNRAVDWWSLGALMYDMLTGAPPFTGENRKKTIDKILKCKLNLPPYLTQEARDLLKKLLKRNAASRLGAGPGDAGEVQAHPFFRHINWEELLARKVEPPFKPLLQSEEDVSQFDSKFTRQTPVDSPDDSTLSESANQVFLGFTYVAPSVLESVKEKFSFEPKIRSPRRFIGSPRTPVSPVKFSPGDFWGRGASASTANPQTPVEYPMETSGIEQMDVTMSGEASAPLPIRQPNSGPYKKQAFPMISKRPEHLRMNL

CDKL1 (human) = CDKL1 (human) (UniProt Q00532)
CDKL1 (human), sequence (Q00532 whole entry, looked up): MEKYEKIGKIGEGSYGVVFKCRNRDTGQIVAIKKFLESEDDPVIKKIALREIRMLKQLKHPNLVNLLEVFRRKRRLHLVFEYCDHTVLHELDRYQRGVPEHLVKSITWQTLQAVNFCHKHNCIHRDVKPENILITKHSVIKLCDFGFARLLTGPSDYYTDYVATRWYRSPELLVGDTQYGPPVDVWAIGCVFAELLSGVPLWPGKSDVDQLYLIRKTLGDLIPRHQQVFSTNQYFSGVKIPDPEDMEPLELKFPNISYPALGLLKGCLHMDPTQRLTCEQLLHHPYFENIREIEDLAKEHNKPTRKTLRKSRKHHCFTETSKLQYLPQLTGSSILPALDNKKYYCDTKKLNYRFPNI

[4] = system: EGFR (human), P00533 [T790M/L858R]
NEK4 (human) = NEK4 (human) (UniProt P51957)
NEK4 (human), sequence (P51957 whole entry, looked up): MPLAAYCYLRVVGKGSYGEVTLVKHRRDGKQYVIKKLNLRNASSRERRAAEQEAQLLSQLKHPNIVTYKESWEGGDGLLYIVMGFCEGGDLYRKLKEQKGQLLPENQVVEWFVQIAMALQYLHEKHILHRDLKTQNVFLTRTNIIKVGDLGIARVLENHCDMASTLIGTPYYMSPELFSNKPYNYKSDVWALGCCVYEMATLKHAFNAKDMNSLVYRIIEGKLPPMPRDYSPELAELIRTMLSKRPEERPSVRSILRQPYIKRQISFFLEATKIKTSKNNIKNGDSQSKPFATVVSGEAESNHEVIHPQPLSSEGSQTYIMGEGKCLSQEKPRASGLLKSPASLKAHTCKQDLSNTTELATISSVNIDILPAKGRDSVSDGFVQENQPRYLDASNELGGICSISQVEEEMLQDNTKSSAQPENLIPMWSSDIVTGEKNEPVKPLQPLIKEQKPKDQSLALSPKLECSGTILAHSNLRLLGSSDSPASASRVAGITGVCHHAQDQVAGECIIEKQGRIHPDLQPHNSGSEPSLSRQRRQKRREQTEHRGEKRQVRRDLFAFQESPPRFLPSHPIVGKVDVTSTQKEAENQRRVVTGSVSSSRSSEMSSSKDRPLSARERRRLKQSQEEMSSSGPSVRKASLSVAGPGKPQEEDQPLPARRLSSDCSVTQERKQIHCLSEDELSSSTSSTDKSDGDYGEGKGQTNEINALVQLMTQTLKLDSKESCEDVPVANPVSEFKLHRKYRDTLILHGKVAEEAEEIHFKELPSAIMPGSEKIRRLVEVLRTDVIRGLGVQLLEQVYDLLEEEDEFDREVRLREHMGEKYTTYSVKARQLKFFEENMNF

MARK3 (human) = MARK3 (human) (UniProt P27448)
MARK3 (human), sequence (P27448 whole entry, looked up): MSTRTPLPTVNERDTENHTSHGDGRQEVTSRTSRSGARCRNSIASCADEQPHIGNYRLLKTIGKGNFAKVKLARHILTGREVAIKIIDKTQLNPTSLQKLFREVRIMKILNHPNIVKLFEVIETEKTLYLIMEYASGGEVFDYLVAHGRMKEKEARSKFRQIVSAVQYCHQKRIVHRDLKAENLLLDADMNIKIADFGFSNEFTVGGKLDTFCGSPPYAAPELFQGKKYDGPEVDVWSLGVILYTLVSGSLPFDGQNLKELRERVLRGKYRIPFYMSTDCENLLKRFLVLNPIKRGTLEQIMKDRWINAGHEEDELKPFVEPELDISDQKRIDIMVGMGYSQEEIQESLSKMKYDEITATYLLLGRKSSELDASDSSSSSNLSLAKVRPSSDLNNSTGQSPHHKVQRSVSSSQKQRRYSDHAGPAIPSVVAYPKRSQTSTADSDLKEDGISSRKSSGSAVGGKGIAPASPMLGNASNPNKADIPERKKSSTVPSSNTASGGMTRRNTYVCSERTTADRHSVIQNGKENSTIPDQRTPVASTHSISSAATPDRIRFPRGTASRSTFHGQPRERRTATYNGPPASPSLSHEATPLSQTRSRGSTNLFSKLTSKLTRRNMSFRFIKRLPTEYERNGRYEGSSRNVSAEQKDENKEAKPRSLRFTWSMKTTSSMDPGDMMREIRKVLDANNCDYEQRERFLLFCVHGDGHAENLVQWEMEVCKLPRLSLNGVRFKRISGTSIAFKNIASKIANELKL

MAP3K2 (human) = MAP3K2 (human) (UniProt Q9Y2U5)
MAP3K2 (human), sequence (Q9Y2U5 whole entry, looked up): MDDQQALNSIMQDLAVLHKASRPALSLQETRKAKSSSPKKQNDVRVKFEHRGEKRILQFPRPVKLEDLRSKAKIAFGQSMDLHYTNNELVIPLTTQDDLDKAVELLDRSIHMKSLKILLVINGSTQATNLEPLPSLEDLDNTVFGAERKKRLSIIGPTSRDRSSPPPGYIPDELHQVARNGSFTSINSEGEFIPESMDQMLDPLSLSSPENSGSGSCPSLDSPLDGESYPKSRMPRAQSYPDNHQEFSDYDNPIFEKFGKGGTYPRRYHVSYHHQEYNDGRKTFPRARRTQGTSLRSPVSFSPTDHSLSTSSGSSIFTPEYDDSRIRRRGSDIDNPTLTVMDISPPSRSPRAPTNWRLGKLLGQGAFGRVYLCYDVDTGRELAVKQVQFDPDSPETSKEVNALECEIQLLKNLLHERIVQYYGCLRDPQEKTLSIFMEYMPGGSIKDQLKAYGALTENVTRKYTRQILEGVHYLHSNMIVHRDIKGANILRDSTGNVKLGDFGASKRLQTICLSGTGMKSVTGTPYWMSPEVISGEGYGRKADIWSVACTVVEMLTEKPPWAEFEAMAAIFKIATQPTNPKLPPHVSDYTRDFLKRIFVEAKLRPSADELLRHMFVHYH

SNRK (human), sequence (Q9NRH2 whole entry, looked up): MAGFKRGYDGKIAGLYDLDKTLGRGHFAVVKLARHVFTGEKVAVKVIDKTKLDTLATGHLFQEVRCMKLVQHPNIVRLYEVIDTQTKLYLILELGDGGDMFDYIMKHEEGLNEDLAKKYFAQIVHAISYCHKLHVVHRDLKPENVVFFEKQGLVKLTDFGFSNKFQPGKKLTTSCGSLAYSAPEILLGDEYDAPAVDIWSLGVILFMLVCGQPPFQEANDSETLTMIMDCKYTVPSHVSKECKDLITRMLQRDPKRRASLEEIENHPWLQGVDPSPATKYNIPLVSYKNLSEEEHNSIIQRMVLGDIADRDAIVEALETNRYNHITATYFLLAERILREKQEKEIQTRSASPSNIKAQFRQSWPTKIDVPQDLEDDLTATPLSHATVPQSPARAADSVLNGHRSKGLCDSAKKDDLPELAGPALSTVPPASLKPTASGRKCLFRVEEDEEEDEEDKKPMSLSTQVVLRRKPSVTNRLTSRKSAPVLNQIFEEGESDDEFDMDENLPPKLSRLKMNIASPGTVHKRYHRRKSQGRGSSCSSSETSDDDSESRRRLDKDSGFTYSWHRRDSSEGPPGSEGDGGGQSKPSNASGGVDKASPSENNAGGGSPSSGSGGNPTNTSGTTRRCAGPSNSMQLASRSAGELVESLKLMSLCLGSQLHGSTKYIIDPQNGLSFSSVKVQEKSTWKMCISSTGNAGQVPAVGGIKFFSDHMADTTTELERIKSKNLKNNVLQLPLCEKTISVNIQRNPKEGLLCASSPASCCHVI
MATK (human), sequence (P42679 whole entry, looked up): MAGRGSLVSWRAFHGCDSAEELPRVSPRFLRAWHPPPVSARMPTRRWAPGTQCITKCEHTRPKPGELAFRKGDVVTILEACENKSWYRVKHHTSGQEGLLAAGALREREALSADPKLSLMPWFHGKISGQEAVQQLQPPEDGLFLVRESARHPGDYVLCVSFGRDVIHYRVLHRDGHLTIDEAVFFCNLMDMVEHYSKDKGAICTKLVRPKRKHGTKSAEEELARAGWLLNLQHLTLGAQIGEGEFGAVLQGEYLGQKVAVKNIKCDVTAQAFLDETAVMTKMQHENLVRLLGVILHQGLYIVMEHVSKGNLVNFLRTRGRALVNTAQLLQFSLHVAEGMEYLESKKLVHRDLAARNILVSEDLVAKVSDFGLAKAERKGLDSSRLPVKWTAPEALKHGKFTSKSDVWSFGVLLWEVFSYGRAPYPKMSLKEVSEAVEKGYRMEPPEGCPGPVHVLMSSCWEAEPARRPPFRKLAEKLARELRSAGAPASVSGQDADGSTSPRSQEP

SMILES	kinase still bound, per cent of control (BRAF (human))	kinase still bound, per cent of control [1]	kinase still bound, per cent of control [2]	kinase still bound, per cent of control [3]	kinase still bound, per cent of control (MATK (human))	kinase still bound, per cent of control (SNRK (human))	kinase still bound, per cent of control (YSK4 (human))	kinase still bound, per cent of control (MAP2K7 (human))	kinase still bound, per cent of control (SIK3 (human))	kinase still bound, per cent of control (EPHB6 (human))	kinase still bound, per cent of control (RPS6KB1 (human))	kinase still bound, per cent of control (CDKL1 (human))	kinase still bound, per cent of control [4]	kinase still bound, per cent of control (NEK4 (human))	kinase still bound, per cent of control (MARK3 (human))	kinase still bound, per cent of control (MAP3K2 (human))
COc1cc(N2CCC(N3CCN(C)CC3)CC2)ccc1Nc1ncc(Cl)c(Nc2ccccc2S(=O)(=O)C(C)C)n1	40%	40%	2.2%	–	–	–	–	–	–	–	–	–	–	–	–	–
CCN1CCN(Cc2ccc(NC(=O)c3ccc(C)c(Oc4ccnc5[nH]ccc45)c3)cc2C(F)(F)F)CC1	–	–	0.4%	0.7%	–	–	–	–	–	–	–	–	–	–	–	–
CCN1CCN(Cc2ccc(NC(=O)c3ccc(C)c(/C=C/c4cnc(Nc5cc(N6CCNCC6)nc(C)n5)cn4)c3)cc2C(F)(F)F)CC1	–	–	–	–	100%	84%	0%	30%	100%	1.6%	6.2%	61%	65%	28%	58%	0.4%
CCOc1cc(N2CCC(N3CCCCC3)CC2)ccc1Nc1nc(Nc2ccccc2S(=O)(=O)C(C)C)c2cn[nH]c2n1	–	–	–	–	100%	40%	100%	78%	100%	71%	100%	100%	25%	74%	100%	28%
